These results are taken from paper PMC4683377, “BODIPY-Based Fluorescent Probes for Sensing Protein Surface-Hydrophobicity” (Scientific Reports, 2015).

Assay [1] concerns the target T1, bovine serum albumin (BSA) (Bos taurus, UniProt P02769).
T1 construct: gene ALB
As to the kind of experiment: fluorescence titration ([…] dye, protein varied). Type of assay: binding.

For a further assay, the target named is T2, apomyoglobin (ApoMb) (Equus caballus, UniProt P68082).
T2 construct: gene MB; apo form (heme removed) prepared from equine myoglobin
As to the kind of experiment: fluorescence titration ([…] dye, protein varied). The format is binding.

Structures are written as SMILES.

T1 sequence (P02769 25-607): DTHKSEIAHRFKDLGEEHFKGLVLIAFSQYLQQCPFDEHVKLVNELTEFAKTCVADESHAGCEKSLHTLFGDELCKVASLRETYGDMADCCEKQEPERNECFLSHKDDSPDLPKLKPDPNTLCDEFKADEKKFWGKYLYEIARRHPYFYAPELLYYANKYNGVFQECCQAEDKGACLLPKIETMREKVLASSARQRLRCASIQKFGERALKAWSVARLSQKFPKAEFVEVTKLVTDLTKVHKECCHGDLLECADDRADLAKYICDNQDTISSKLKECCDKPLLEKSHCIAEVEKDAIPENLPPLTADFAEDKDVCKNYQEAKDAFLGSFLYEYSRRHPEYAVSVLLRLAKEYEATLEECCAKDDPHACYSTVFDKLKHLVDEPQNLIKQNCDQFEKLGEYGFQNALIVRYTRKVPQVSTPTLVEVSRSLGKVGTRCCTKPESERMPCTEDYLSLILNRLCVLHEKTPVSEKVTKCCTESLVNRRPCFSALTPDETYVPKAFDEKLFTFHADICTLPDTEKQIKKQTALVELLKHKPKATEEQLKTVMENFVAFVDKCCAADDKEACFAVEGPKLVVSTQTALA
T2 sequence (P68082 2-154): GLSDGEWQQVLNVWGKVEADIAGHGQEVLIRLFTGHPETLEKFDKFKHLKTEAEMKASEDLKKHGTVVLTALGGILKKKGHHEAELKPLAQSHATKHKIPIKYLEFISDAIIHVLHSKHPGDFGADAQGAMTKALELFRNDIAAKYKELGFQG

As for `COCCNC1=[N+]2C(=C(c3ccc(OC)cc3)c3ccc(NCCOC)n3[B-]2(F)F)C=C1` [compound 2, HPsensor 2], the results for the dissociation constant (Kd) (in assay [1]; at apomyoglobin (ApoMb)) were 34 nM and 330 nM, respectively.

In general, Kd refers to the constant that tells how readily two partners part at equilibrium. A higher Kd goes with lower affinity.
